Experimental data as given in patent US5942534A, “Photodynamic therapy for the treatment of osteoarthritis” (The General Hospital Corporation, priority 1997, dated 1999).
≈ marks a conversion by molar mass, not a printed value. Read-outs that look alike come from different tables or passages of the source.

What was measured:
Format in all cases: cell-based, calf
chondrocytes [1] = experiment: PDT-induced cytotoxicity (MTT cellular viability) in chondrocytes; conditions: for toxic response / cellular viability (in words): 1, 5 or 10 J/cm^2 light; for decrease in cellular viability: BPD-MA concentrations exceeding 0.1 μg/ml, 690 nm
Protocol: (§1) Chondrocytes were harvested by established collagenase digestion techniques. Articular cartilage was aseptically dissected from the femoral condyles and patellas of calf knee joints. […] The resulting cell suspensions were filtered through a cell sieve and washed twice with serum free TCM. The cells were resuspended in the same medium containing 5% heat inactivated fetal calf serum (BioWhittaker, Walkerville, Md.) (FCS-TCM) for seeding. Cell number was determined using a hemocytometer. […] Cells were plated at a density of 1.5×10^6 cells/ml into Falcon 96 well cell culture plates (Becton Dickinson Labware, Franklin Lakes, N.J.) for the cytotoxicity and cell proliferation experiments and into Falcon 6 well cell culture plates for the Photosensitizer uptake studies. Chondrocyte cultures were maintained at 37° C. in a 5% CO2 incubator for 1 week prior to initiation of the photosensitization studies.
(§2) Photofrin® (PF) and Benzoporphyrin Derivative (BPD-MA) were obtained from Quadralogic Technologies (Vancouver, Canada). Chlorin e6 (Ce6) and chloroaluminum phthalocyanine (CASP) were obtained from Ciba Geigy (Basel, Switzerland) and Porphyrin Products (Logan, Utah), respectively. All photosensitizers were added to the chondrocytes in the dark 3 hours prior to light exposure. Photosensitizer stock solutions were prepared immediately prior to each experiment; serial dilutions were prepared using FCS-TCM. All irradiations were done at the appropriate excitation wavelengths for each photosensitizer (BPD-MA 690 nm; Ce6 658 nm; CASP 680 nm; PF 624 nm) using light provided by an argon ion pumped dye laser (Coherent, Palo Alto, Calif.). Following light exposure, control and irradiated cells were maintained for 72 hours prior to the assessment of cellular viability and proliferation rates. Cells were examined daily by light microscopy for morphologic changes.
Screening studies of toxicity determined the range of doses and light response for each photosensitizer. These predetermined ranges were used for all of the studies described. […] Dosages greater than 50 μg/ml were considered not clinically relevant and a dose range extending to 50 μg/ml was chosen for these studies.
PDT-induced cytotoxicity was determined 72 hours after irradiation. […] MTT is metabolized via mitochondrial dehydrogenase enzymes to a formazan dye which can be measured spectrophotometrically. Cytotoxicity is expressed as the percentage of formazan produced in cells treated with visible light of different wavelengths and intensities relative to control cells (% control). The data are expressed as the mean ±S.E.M. from triplicate experiments.

chondrocytes [2] = experiment: Cell proliferation ([^3 H]-thymidine incorporation) after PDT; conditions: for effect on cellular proliferation rates (in words): [^3 H]-thymidine incorporation (FIG. 2); for IC50: Bos taurus, Chondrocyte
Protocol: as §1, §2
Cell proliferation was determined by [^3 H]-thymidine incorporation for all chondrocyte cultures 72 hours after drug and/or light exposure. The cell cultures were labeled with 5 μCi/ml [^3 H]-thymidine (35 Ci/mmol) (ICN, Irvine, Calif.) in FCS-TCM. After incubation for 20 hours, the radioactive medium was removed and the cells were rinsed three times with phosphate buffered saline (PBS) to remove unincorporated label. The cells were then lysed with buffer containing 150 mM Tris pH 8.0, 200 mM sodium chloride, 10% triton X-100 and 1% SDS. [^3 H]-thymidine incorporation was determined by liquid scintillation methods and the data are expressed as mean % control ±S.E.M. of samples irradiated without photosensitizer addition.
(§3) Articular chondrocytes were maintained in primary culture for five days after plating. Photosensitizer stocks were serially diluted in FCS-TCM and added to triplicate wells. The cells were incubated in the dark for 3 hours. The photosensitizer-containing FCS-TCM was then removed and the cells were rinsed with 1 ml PBS. To digest the extracellular matrix, the cells were then immersed in 1 ml of a solution of 1 mg/ml collagenase and 0.1 mg/ml hyaluronidase in serum-free TCM. The resulting single cell suspensions were transferred to microfuge tubes and were centrifuged at 3.3×g for 5 minutes. The collagenase solution was removed and the cells were rinsed three times with calcium/magnesium-free PBS. Aliquots were taken for cell counting prior to cell lysis with 1 ml 0.1 N NaOH containing 1% SDS. Cell counting was performed by hemocytometer and Coulter counter. Fluorescent spectra of the cell lysates were obtained using a Spex FluoroMax spectrofluorometer (ISA Instruments, Edison, N.J.) at the appropriate excitation/emission wavelengths for each of the four photosensitizers studied. Fluorescence spectra were corrected for background fluorescence. Relative uptake values were obtained by regression analysis of standard curves of known photosensitizer concentrations. […] Values of uptake at the IC50 are shown in fg/cell.

articular chondrocytes = experiment: Photosensitizer uptake studies; conditions: for IC50 Uptake: uptake at the IC50, 3 hours incubation in the dark; for relative uptake (in words): at the IC50 concentrations, 3 hour incubation
Protocol: as §1
as §3, with “fg/cell. Average protein per cell was calculated from the cell counts and protein concentration determined by the Lowry protein assay.” for “fg/cell.”

MMP2 = experiment: Gelatin zymography, MMP2 after PDT; conditions: for reduction of MMP2 production: at the IC50 dose
Protocol: as §1, §2
Aliquots of conditioned medium were mixed with 1 ml of acetone and maintained at -20° C. for 16-20 hours. The aliquots were microcentrifuged at 14,000×g for 15 minutes, the supernatant was removed and the precipitated protein was dried in a vacuum concentrator (Savant, Farmingdale, N.Y.) to remove residual acetone. Conditioned medium samples were mixed with sample buffer (0.4 M Tris pH 6.8, 5% SDS, 20% glycerol, 0.003% bromophenol blue) and applied directly, without boiling or reduction, to 10% acrylamide gels containing 1% gelatin. […] The gels were stained for 1 hour at room temperature in 30% methanol/10% acetic acid containing 0.5% coomassie blue R-250 and destained in the same solution without dye. The gelatinolytic activity of the proteins was evidenced by clear bands against the blue background of the stained gelatin.

chondrocytes [3] = experiment: Fluorescence of photosensitizers in chondrocytes (confocal microscopy)
MMP9 = experiment: Gelatin zymography, MMP9 after PDT; conditions: at PDT parameter levels non-toxic to chondrocytes
Protocol: Chondrocytes were harvested by established collagenase digestion techniques. Articular cartilage was aseptically dissected from the femoral condyles and patellas of calf knee joints. Condyle surface shavings were finely minced and digested overnight at 37° C. with collagenase 1 mg/ml (Type II; 355 U/mg dry weight (dw)) and hyaluronidase 0.1 mg/ml (1060 USP/NF units/mg dw) (Worthington Biochemicals, Inc., Freehold, N.J.) in Dulbecco's Modified Eagle's Medium (DMEM; Mediatech, Herndon, Va.) supplemented with 20 mM HEPES, 100 U/ml penicillin G, 100 μg/ml ascorbic acid (serum free TCM). The resulting cell suspensions were filtered through a cell sieve and washed twice with serum free TCM. The cells were resuspended in the same medium containing 5% heat inactivated fetal calf serum (BioWhittaker, Walkerville, Md.) (FCS-TCM) for seeding. Cell number was determined using a hemocytometer. Cell viability, which was determined by trypan blue exclusion, was greater than 99% for all preparations. Cells were plated at a density of 1.5×10^6 cells/ml into Falcon 96 well cell culture plates (Becton Dickinson Labware, Franklin Lakes, N.J.) for the cytotoxicity and cell proliferation experiments and into Falcon 6 well cell culture plates for the Photosensitizer uptake studies. […]

[4] = CASP parameters tested in zymography studies
[5] = concentration inhibiting [^3 H]-thymidine incorporation by 50%

[Cl][Al]1[n]2c3c4ccccc4c2N=C2N=C(N=c4c5ccccc5c([n]41)=NC1=NC(=N3)c3ccccc31)c1ccccc12 [CASP, chloroaluminum phthalocyanine]
toxic response / cellular viability (in words) (chondrocytes [1]): minimally toxic to articular chondrocytes | decrease in cellular viability by MTT production (in words) (chondrocytes [1]; [4]): no decrease in cellular viability was observed | saturation of toxicity effects (in words) (chondrocytes [1]; in the range studied (FIG. 1D)): No saturation effects were observed | dose response in screening studies of toxicity (in words) (chondrocytes [1]; screening studies of toxicity to determine range of doses): no dose response was seen | reduction of [^3 H]-thymidine incorporation (chondrocytes [2]; 50 μg/ml, highest concentration of CASP investigated): 25% | decrease by [^3 H]-thymidine incorporation (in words) (chondrocytes [2]; [4]): no decrease in cellular viability was observed | effect on cellular proliferation rates (in words) (chondrocytes [2]): least toxic | IC50 (Table 2) (chondrocytes [2]; [5]): > 50 µg/mL | Photons Absorbed at IC50 (articular chondrocytes): 1.86 × 10^6 photons/cell | IC50 Uptake (articular chondrocytes): 64.77 fg/cell | reduction in MMP2 levels (in words) (MMP2; 3.12 μg/ml, light dose of 10 J/cm^2, no decrease in cell viability): complete reduction in MMP2 levels | reductions in MMP2 levels (in words) (MMP2; CASP parameters tested): significant reductions in MMP2 levels | decrease of MMP2 levels (MMP2; drug concentrations greater than 0.2 μg/ml, light dose of 10 J/cm^2): 25% | cellular fluorescence intensity (in words) (chondrocytes [3]): Minimal CASP fluorescence was observed at the drug concentrations studied

C=Cc1c(C)c2cc3nc(c(CC(=O)O)c4[nH]c(cc5nc(cc1[nH]2)C(C)=C5CC)c(C)c4C(=O)O)[C@@H](CCC(=O)O)[C@@H]3C [Ce6, Chlorin e6]
decrease in viability (chondrocytes [1]; more than 6 μg/ml Ce6, 5 or 10 J/cm^2 light, 658 nm, 72 hours after irradiation): approximately 50% | IC50 (chondrocytes [2]; 72 hours after drug and/or light exposure, light dose not given, read-out: IC50, inhibition of chondrocyte proliferation ([^3 H]-thymidine incorporation)): 4.4 µg/mL (≈ 7.37 µM) | IC50 (chondrocytes [2]; concentration inhibiting [^3 H]-thymidine incorporation by 50%, read-out: IC50 (Table 2)): 4.4 µg/mL (≈ 7.37 µM) | Photons Absorbed at IC50 (articular chondrocytes): 1.44 × 10^8 photons/cell | relative uptake (in words) (articular chondrocytes): markedly less than for CASP and PF | IC50 Uptake (articular chondrocytes): 2.32 fg/cell | MMP2 production (in words) (MMP2; at PDT parameter levels non-toxic to chondrocytes): reduced at PDT parameter levels non-toxic to chondrocytes | MMP production (in words) (MMP2; at high drug doses): correspondingly greater decreases in MMP production | reduction of MMP2 production (MMP2): > 95% | total protein concentration (in words) (MMP2; zymography studies): did not vary with MMP values | MMP9 production (in words) (MMP9): reduced at PDT parameter levels non-toxic to chondrocytes | cellular fluorescence intensity (in words) (chondrocytes [3]): elevated levels of cytoplasmic fluorescence comparable in intensity and distribution to BPD-MA

Benzoporphyrin Derivative [BPD-MA]
toxic response / cellular viability (in words) (chondrocytes [1]): most toxic responses in chondrocyte cultures | decrease in cellular viability (chondrocytes [1]; 1 J/cm^2 light, 72 hours after irradiation): 60% | decrease in cellular viability (chondrocytes [1]; 5 or 10 J/cm^2 light, 72 hours after irradiation): 80% | IC50, inhibition of chondrocyte proliferation ([^3 H]-thymidine incorporation) (chondrocytes [2]; 72 hours after drug and/or light exposure, light dose not given): 0.0503 µg/mL | effect on cellular proliferation rates (in words) (chondrocytes [2]): most toxic effects | IC50 (Table 2) (chondrocytes [2]; [5]): 0.05 µg/mL | Photons Absorbed at IC50 (articular chondrocytes): 5.86 × 10^6 photons/cell | relative uptake (in words) (articular chondrocytes): lowest relative uptake | IC50 Uptake (articular chondrocytes): 1.02 fg/cell | MMP2 production (in words) (MMP2; at a highly toxic dose): non-detectable | reduction of MMP2 production (MMP2): approximately 50% | MMP2 production (in words) (MMP2; dependence on cell killing): MMP2 production decreased as a function of cell killing | cellular fluorescence intensity (in words) (chondrocytes [3]): strongest fluorescence signals | fluorescence/uptake in differentiated vs dedifferentiated chondrocytes (in words) (chondrocytes [3]): Fluorescence occurred uniformly in both differentiated and dedifferentiated chondrocytes | subcellular fluorescence distribution (in words) (chondrocytes [3]): diffuse cytoplasmic fluorescence for all drug concentrations studied. No nuclear or membrane staining was observed
